What all share (test): ≥ marks a high value that may be exact or a test limit, other limits are often not marked, values filed in µg/mL are converted to µM
In assay [1] the test system is Candida albicans NCTC 3179.
Assay [2] relates to Staphylococcus aureus ATCC 25923.
The subject of assay [3] is Escherichia coli ATCC 25922.
For assay [4], the system named is Staphylococcus aureus ATCC 12493.
In assay [5] the test system is Candida albicans NCPF 1467.
Assay [6] has as its system Escherichia coli NCTC 10418.
The subject of assay [7] is Staphylococcus aureus NCTC 10788.
Assay [8] has as its system Vibrio alginolyticus.
Assay [9] relates to Streptococcus pyogenes.
Assay [10] has as its system Vibrio fluvialis.
The test system of assay [11] is Aeromonas hydrophila.
The test system of assay [12] is Escherichia coli.
Assay [13] relates to Staphylococcus aureus.
The subject of assay [14] is Vibrio parahaemolyticus.
Assay [15] deals with Staphylococcus aureus ATCC BAA-44.
Assay [16] concerns Escherichia coli ML-35p.
The test system of assay [17] is Pseudomonas aeruginosa ATCC 27853.
The test system of assay [18] is Enterococcus faecalis ATCC 29212.
Assay [19] has as its system Candida albicans ATCC 90028.
Assay [20] deals with Rhizoctonia solani.
The subject of assay [21] is Fusarium oxysporum.
Assay [22] has as its system Xanthomonas campestris pv. citri.
The subject of assay [23] is Fusarium solani.
For assay [24], the system named is Cryptococcus neoformans ATCC 28957.
Assay [25] concerns Bacillus subtilis ATCC 23857.
Assay [26] concerns Pseudomonas syringae pv. tabaci.
Assay [27] concerns Trichoderma asperellum.
Assay [28] concerns Ramulariopsis gossypii.
Assay [29] concerns Pectobacterium carotovorum.
Assay [30] relates to Fusarium oxysporum f.sp. vasinfectum.
Assay [31] deals with Bacillus cereus ATCC 14579.
Assay [32] has as its system Klebsiella pneumoniae KCTC 2208.
The test system of assay [33] is Acinetobacter baumannii KCTC 2508.
The test system of assay [34] is Pseudomonas aeruginosa MTCC 2488.
Assay [35] concerns Klebsiella pneumoniae MTCC 443.
For assay [36], the system named is Staphylococcus aureus MTCC 96.
For assay [37], the system named is Streptococcus mutans GS-5.
Assay [38] has as its system Streptococcus sanguinis ATCC 49295.
Assay [39] deals with Streptococcus gordonii ATCC 10558.
The subject of assay [40] is Streptococcus mutans UA159.

Converted amounts (≈) assume the structure as drawn.

On to `CC[C@H](C)[C@H](NC(=O)[C@@H]1CCCN1C(=O)CNC(=O)[C@H](CO)NC(=O)[C@H](CO)NC(=O)[C@@H](NC(=O)[C@H](C)NC(=O)[C@H](CCC(N)=O)NC(=O)[C@H](Cc1ccccc1)NC(=O)[C@H](CCCN=C(N)N)NC(=O)[C@H](CC(C)C)NC(=O)[C@H](CC(C)C)NC(=O)[C@H](CC(C)C)NC(=O)[C@H](CCC(=O)O)NC(=O)[C@H](CCC(=O)O)NC(=O)[C@H](CO)NC(=O)[C@H](C)N)[C@@H](C)O)C(=O)N[C@@H](CC(C)C)C(=O)N[C@@H](CCCN=C(N)N)C(=O)N[C@@H](CCC(=O)O)C(=O)N[C@@H](CCC(=O)O)C(=O)N[C@@H](Cc1ccccc1)C(=O)N[C@@H](CCC(=O)O)C(=O)O` [ASEELLLRFQATSSGPILREEFE], for which the MIC was at least 95.3 µM in assay [1], above 95.3 µM in assay [2] and above 95.3 µM in [3].
As to `CC(C)C[C@H](NC(=O)[C@H](CC(C)C)NC(=O)[C@H](CC(C)C)NC(=O)[C@@H]1CCCN1C(=O)[C@H](CC(C)C)NC(=O)[C@@H](N)Cc1ccccc1)C(=O)N[C@@H](C)C(=O)NCC(=O)N[C@@H](CC(C)C)C(=O)N1CCC[C@H]1C(=O)N[C@@H](CO)C(=O)N[C@@H](Cc1ccccc1)C(=O)N[C@@H](CC(C)C)C(=O)N[C@H]1CSSC[C@@H](C(=O)O)NC(=O)[C@H](CCCCN)NC(=O)[C@H](CCCCN)NC(=O)[C@H](Cc2ccccc2)NC(=O)[C@H](C(C)C)NC(=O)[C@H](CC(C)C)NC1=O` [FLPLLLAGLPSFLCLVFKKC], the MIC is at least 512 µM in [4], at least 512 µM in [5], at least 512 µM in assay [6] and at least 128 µM in assay [7].
Consider `CC(C)C[C@H](NC(=O)[C@H](CCCCN)NC(=O)[C@H](CCC(N)=O)NC(=O)[C@@H](NC(=O)[C@H](C)NC(=O)[C@H](CCC(=O)O)NC(=O)CNC(=O)CN)C(C)C)C(=O)N[C@H](C(=O)N[C@@H](CCCN=C(N)N)C(=O)N[C@@H](CCC(=O)O)C(=O)N[C@H](C(=O)N[C@@H](CCCCN)C(=O)N[C@@H](CC(=O)O)C(=O)NCC(=O)O)C(C)C)C(C)C` [GGEAVQKLVREVKDG], for which the MIC in [8] is at least 78.9 µM; in assay [9], at least 158 µM; in [10], at least 78.9 µM; in assay [11], at least 158 µM; in [12] it was above 158 µM; in assay [13], above 158 µM. Besides, in [14], the minimum inhibitory concentration (MIC) was at least 158 µM.
`CC[C@H](C)[C@H](NC(=O)[C@H](CCCCN)NC(=O)[C@H](CC(C)C)NC(=O)[C@H](CC(C)C)NC(=O)[C@@H]1CCCN1C(=O)CNC(=O)[C@H](CC(C)C)NC(=O)[C@H](CCCCN)NC(=O)CN)C(=O)N[C@@H](C)C(=O)N[C@@H](C)C(=O)N[C@@H](CCCCN)C(=O)N[C@H](C(=O)NCC(=O)N[C@@H](CO)C(=O)N[C@@H](CCCCN)C(=O)N[C@@H](CC(C)C)C(=O)N[C@@H](CC(C)C)C(N)=O)C(C)C` [GKLGPLLKIAAKVGSKLL]: the MIC turned out to be 6.3 µM (≈ 11.4 µg/mL) in [15]; 3 µM (≈ 5.42 µg/mL) in assay [2]; 6.3 µM (≈ 11.4 µg/mL) in assay [3]; 1.6 µM (≈ 2.89 µg/mL) in assay [16]; 3 µM (≈ 5.42 µg/mL) in assay [17]; 50 µM (≈ 90.3 µg/mL) in [18].
`CSCC[C@H](NC(=O)[C@H](Cc1ccccc1)NC(=O)CNC(=O)[C@H](Cc1cnc[nH]1)NC(=O)[C@H](CC(C)C)NC(=O)[C@H](CO)NC(=O)CN)C(=O)N[C@@H](Cc1ccc(O)cc1)C(=O)N[C@@H](CCCCN)C(=O)N[C@@H](Cc1ccc(O)cc1)C(=O)N[C@@H](CC(C)C)C(=O)N[C@@H](CCCCN)C(=O)N[C@H](C(=O)N[C@@H](CC(C)C)C(=O)N[C@H](C(=O)N[C@@H](CC(C)C)C(=O)N[C@@H](CCCN=C(N)N)C(=O)N[C@@H](CC(C)C)C(=O)N[C@@H](Cc1ccc(O)cc1)C(N)=O)C(C)C)[C@@H](C)O` [GSLHGFMYKYLKTLVLRLY]: the minimum inhibitory concentration (MIC) was 6.67 µM (≈ 15.4 µg/mL) in assay [19]; at least 32 µM in assay [20]; 16 µM (≈ 36.8 µg/mL) in [2]; 16 µM (≈ 36.8 µg/mL) in [21]; 16 µM (≈ 36.8 µg/mL) in [22]; 4 µM (≈ 9.21 µg/mL) in assay [23]. In addition, the minimum inhibitory concentration (MIC) in assay [24] was 4 µM (≈ 9.21 µg/mL); in [25], 8 µM (≈ 18.4 µg/mL); in assay [26], at least 32 µM; in assay [27] it was 16 µM (≈ 36.8 µg/mL); in assay [28], 2 µM (≈ 4.6 µg/mL); in assay [29], 16 µM (≈ 36.8 µg/mL). The minimal inhibitory concentration (MIC) in [3] is 13.3 µM (≈ 30.7 µg/mL); in assay [30], 10.7 µM (≈ 24.6 µg/mL); in assay [31], at least 64 µM; in [17], 16 µM (≈ 36.8 µg/mL).
As for `CC[C@H](C)[C@H](N)C(=O)N[C@@H](C)C(=O)N[C@@H](CCCN=C(N)N)C(=O)N[C@@H](CCCN=C(N)N)C(=O)N[C@@H](C)C(=O)N[C@@H](CC(C)C)C(=O)N[C@@H](CCCCN)C(=O)N[C@@H](CCCCN)C(=O)N[C@@H](C)C(=O)N[C@@H](CCCCN)C(=O)N[C@@H](CCCN=C(N)N)C(=O)N[C@@H](C)C(=O)N[C@@H](CCCN=C(N)N)C(=O)N[C@@H](Cc1cnc[nH]1)C(=O)N[C@H](C(=O)N[C@H](C(=O)N1CCC[C@H]1C(=O)N[C@@H](CCC(N)=O)C(=O)N[C@@H](CS)C(=O)N[C@@H](CCCCN)C(=O)N[C@@H](CCCCN)C(=O)N[C@@H](Cc1ccccc1)C(=O)NCC(=O)N[C@@H](CCCN=C(N)N)C(=O)N[C@@H](CCCN=C(N)N)C(N)=O)[C@@H](C)CC)[C@@H](C)O` [IARRALKKAKRARHTIPQCKKFGRR], the values for the MIC in assay [32], in assay [33] and in assay [17] were 8 µM (≈ 23.9 µg/mL), 4 µM (≈ 12 µg/mL) and 1 µM (≈ 2.99 µg/mL), respectively.
In the case of `CC(C)C[C@H](NC(=O)[C@H](CCCCN)NC(=O)[C@H](CCCCN)NC(=O)[C@H](CC(C)C)NC(=O)[C@H](Cc1c[nH]c2ccccc12)NC(=O)[C@H](CCCCN)NC(=O)[C@@H](N)CC(C)C)C(N)=O` [LKWLKKL], the MIC in assay [34] is 30 µM (≈ 27.8 µg/mL); in [35], at least 50 µM; in assay [36] it was at least 80 µM.
On to `CC(C)C[C@H](NC(=O)[C@H](CCCN=C(N)N)NC(=O)[C@H](Cc1ccccc1)NC(=O)[C@H](Cc1ccccc1)NC(=O)[C@@H](NC(=O)[C@H](CO)NC(=O)[C@@H](N)CC(C)C)[C@@H](C)O)C(=O)N[C@@H](Cc1ccccc1)C(=O)N[C@@H](CC(N)=O)C(=O)O` [LSTFFRLFN], for which the minimum inhibitory concentration (MIC) in assay [37], in [38], in assay [39] and in assay [40] was at least 224 µM each time.

The record behind these values is DBAASP.
